# Legend:
# Assay type in all cases: biochemical
# ASH1L = ASH1L (Homo sapiens, UniProt Q9NR48); assay: Methyltransferase inhibition panel: ASH1L; settings: control compound; substrate Nucleosomes 0.05 mg/mL
# Description: (§1) The ability of ETP69 to inhibit methyltransferases was tested.
# NSD3 = molecular target: T1, NSD3 (Homo sapiens, UniProt Q9BZ95); assay: Methyltransferase inhibition panel: NSD3; settings: control compound; substrate Nucleosomes 0.05 mg/mL
# T1 sequence (Q9BZ95 1-1437): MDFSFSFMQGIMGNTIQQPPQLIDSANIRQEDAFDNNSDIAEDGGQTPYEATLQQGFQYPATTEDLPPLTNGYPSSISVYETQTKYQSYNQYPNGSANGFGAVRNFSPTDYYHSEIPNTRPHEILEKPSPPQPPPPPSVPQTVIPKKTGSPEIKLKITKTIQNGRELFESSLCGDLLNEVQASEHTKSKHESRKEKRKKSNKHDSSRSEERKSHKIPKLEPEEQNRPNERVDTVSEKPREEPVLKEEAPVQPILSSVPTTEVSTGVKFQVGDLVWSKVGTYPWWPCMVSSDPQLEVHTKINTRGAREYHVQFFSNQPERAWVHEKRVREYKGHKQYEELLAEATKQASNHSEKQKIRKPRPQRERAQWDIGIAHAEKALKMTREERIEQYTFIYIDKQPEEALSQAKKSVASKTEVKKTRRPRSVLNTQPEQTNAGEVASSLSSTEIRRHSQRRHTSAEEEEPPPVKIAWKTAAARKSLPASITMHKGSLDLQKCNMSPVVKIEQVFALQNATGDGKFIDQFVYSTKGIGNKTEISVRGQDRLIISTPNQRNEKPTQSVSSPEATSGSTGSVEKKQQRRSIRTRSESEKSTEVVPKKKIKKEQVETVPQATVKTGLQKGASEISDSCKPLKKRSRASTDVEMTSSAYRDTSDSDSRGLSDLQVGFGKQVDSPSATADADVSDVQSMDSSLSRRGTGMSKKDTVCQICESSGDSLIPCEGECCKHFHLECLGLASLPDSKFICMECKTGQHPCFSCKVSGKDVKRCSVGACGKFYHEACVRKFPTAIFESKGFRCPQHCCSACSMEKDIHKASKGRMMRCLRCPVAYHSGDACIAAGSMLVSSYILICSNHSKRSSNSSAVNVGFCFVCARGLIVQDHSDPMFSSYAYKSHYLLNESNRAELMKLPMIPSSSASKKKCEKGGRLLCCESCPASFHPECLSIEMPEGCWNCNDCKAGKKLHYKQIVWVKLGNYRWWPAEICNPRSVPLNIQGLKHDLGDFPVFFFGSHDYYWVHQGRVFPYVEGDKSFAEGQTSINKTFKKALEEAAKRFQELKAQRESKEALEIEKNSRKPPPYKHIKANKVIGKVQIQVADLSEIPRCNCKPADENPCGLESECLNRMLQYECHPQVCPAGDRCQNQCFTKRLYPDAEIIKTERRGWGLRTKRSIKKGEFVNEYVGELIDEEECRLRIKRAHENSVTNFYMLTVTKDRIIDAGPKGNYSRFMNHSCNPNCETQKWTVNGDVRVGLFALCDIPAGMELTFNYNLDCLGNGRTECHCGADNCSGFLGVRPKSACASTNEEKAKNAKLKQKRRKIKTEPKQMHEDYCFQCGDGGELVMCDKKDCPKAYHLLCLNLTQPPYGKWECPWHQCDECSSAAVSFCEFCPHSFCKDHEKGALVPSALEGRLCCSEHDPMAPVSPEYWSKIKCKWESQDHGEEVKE
# Description: as §1
# SET8 = molecular target: T2, SET8 (Homo sapiens, UniProt Q9NQR1); assay: Methyltransferase inhibition panel: SET8; settings: control compound; substrate Nucleosomes 0.05 mg/mL
# T2 sequence (Q9NQR1 1-393): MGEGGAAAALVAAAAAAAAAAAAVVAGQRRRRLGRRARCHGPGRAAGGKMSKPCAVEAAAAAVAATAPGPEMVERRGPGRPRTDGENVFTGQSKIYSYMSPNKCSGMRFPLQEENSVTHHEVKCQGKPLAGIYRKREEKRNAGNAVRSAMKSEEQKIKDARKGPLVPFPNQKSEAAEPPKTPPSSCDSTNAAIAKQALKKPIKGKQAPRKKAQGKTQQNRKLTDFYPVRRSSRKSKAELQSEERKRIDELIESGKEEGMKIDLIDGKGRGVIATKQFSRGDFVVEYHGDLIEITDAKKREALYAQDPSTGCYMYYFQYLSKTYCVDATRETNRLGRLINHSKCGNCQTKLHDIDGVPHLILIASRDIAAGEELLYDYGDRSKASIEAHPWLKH
# Description: as §1
# SETDB1 = SETDB1 (Homo sapiens, UniProt Q15047); assay: Methyltransferase inhibition panel: SETDB1; settings: control compound; substrate Histone H3 5 μM
# Description: as §1
# MLL3 Complex = MLL3 Complex (Homo sapiens, UniProt Q8NEZ4); assay: Methyltransferase inhibition panel: MLL3 Complex; settings: control compound; substrate Nucleosomes 0.05 mg/mL
# Description: as §1
# PRMT6 = PRMT6 (Homo sapiens, UniProt Q96LA8); assay: Methyltransferase inhibition panel: PRMT6; settings: control compound; substrate GST-GAR 5 μM
# Description: as §1
# METTL21A = METTL21A (Homo sapiens, UniProt Q8WXB1); assay: Methyltransferase inhibition panel: METTL21A; settings: control compound; substrate HSPA8-[CTD] 2.5 μM
# Description: as §1
# GLP = molecular target: T3, GLP (Homo sapiens, UniProt Q9H9B1); assay: Methyltransferase inhibition panel: GLP; settings: read-out: Control IC50*
# T3 sequence (Q9H9B1 1-1298): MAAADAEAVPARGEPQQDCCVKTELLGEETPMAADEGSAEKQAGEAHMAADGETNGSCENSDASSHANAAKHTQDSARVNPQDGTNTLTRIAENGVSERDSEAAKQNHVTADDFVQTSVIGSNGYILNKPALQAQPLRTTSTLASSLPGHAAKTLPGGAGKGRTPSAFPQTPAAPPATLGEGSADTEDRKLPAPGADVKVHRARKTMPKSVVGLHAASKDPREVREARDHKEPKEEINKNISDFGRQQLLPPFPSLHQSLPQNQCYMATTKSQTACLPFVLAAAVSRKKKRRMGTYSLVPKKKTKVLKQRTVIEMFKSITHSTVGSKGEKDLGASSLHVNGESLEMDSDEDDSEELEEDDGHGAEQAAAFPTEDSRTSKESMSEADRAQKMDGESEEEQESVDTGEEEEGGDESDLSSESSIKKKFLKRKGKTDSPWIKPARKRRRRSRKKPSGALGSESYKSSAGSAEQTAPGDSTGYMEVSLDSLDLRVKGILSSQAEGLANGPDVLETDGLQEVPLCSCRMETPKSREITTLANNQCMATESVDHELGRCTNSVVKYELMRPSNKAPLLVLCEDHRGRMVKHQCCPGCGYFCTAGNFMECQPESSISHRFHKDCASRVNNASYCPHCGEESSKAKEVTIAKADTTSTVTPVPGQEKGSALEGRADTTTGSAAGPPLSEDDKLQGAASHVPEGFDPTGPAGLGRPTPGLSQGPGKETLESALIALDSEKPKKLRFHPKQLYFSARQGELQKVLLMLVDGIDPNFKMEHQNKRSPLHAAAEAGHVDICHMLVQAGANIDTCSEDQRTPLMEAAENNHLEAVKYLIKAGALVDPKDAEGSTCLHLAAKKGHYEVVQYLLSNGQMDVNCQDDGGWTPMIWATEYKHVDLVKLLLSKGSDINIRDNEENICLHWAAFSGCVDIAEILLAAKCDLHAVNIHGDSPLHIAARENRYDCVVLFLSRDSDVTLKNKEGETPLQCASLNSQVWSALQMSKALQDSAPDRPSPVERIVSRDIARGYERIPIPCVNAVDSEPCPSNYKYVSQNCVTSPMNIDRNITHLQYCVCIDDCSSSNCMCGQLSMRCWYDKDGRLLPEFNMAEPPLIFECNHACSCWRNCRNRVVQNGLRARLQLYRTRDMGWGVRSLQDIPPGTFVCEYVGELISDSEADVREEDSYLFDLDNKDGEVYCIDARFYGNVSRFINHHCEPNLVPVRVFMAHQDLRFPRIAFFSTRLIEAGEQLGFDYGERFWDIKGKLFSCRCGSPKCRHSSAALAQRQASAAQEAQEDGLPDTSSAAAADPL
# Description: as §1
# SUV39H2 = SUV39H2 (Homo sapiens, UniProt Q9H5I1); assay: Methyltransferase inhibition panel: SUV39H2; settings: control compound; substrate Histone H3 5 μM
# Sequence of SUV39H2 (Q9H5I1 whole entry): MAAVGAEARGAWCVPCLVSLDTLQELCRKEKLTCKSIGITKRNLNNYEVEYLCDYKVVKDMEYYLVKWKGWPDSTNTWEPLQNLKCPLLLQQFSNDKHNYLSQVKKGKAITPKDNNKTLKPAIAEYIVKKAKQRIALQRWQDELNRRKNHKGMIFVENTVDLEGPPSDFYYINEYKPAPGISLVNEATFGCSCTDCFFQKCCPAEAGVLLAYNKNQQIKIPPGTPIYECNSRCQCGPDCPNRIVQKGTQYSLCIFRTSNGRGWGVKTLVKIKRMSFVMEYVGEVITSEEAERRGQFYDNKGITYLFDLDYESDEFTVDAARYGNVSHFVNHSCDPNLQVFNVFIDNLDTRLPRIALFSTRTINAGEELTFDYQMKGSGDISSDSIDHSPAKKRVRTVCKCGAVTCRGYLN
# Description: as §1
# NRMT1 = molecular target: T4, NRMT1 (Homo sapiens, UniProt Q9BV86); assay: Methyltransferase inhibition panel: NRMT1; settings: control compound; substrate RCC1 5 μM
# T4 sequence (Q9BV86 1-223): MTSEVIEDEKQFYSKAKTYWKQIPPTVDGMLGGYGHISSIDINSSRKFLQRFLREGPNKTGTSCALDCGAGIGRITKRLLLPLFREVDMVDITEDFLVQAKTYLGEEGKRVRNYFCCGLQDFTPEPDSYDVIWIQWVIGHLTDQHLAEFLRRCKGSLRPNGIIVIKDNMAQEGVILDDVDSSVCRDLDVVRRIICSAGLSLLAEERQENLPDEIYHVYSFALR
# Description: as §1
# DNMT3b = DNMT3b (Homo sapiens, UniProt Q9UBC3); assay: Methyltransferase inhibition panel: DNMT3b; settings: read-out: Control IC50*
# Description: as §1
# SETD2 = SETD2 (Homo sapiens, UniProt Q9BYW2); assay: Methyltransferase inhibition panel: SETD2; settings: control compound; substrate Nucleosomes 0.05 mg/mL
# Description: as §1
# MLL1 Complex = MLL1 Complex (Homo sapiens, UniProt Q03164); assay: Methyltransferase inhibition panel: MLL1 Complex; settings: control compound; substrate Nucleosomes 0.05 mg/mL
# Sequence of MLL1 Complex (Q03164 3745-3969): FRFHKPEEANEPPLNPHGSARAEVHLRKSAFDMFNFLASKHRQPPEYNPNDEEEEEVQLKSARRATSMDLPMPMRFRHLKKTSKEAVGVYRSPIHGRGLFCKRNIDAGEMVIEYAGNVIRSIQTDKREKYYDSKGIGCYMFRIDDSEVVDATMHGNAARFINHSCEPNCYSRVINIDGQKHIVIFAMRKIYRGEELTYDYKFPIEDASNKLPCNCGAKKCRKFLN
# Sequence of MLL1 Complex (Q9UBL3 96-628, further chain): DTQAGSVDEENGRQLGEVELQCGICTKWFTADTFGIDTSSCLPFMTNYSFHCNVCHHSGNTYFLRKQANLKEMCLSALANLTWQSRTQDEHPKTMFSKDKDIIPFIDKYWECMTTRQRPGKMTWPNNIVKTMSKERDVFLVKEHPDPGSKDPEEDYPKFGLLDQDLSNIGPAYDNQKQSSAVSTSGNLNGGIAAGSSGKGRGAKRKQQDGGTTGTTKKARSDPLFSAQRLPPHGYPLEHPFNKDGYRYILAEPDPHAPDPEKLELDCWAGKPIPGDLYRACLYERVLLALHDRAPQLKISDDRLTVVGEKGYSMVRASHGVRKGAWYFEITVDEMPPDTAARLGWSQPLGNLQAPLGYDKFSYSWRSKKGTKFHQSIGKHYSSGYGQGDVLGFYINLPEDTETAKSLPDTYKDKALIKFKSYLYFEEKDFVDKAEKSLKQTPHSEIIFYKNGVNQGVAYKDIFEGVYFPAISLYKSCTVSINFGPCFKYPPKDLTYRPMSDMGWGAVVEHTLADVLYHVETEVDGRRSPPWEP
# Sequence of MLL1 Complex (Q9C005 whole entry, further chain): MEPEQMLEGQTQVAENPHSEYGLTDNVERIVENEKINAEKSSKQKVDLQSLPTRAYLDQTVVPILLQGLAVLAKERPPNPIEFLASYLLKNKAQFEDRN
# Sequence of MLL1 Complex (Q15291 whole entry, further chain): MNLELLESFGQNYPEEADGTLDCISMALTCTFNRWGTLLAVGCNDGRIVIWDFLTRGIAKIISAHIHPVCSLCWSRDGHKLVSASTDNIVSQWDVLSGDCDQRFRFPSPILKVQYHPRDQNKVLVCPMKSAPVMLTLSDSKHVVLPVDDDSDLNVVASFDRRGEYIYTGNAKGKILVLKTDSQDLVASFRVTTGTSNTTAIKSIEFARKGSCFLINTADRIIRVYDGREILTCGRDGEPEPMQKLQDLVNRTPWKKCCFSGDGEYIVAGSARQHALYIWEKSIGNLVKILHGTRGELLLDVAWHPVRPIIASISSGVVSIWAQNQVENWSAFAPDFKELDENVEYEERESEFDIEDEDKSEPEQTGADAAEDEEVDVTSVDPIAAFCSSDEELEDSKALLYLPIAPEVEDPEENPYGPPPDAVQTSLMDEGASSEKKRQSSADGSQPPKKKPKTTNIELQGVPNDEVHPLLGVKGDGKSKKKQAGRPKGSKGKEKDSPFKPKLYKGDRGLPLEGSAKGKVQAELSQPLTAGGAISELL
# Description: as §1
# DNMT3b/3L = DNMT3b/3L (Homo sapiens, UniProt Q9UBC3); assay: Methyltransferase inhibition panel: DNMT3b/3L; settings: read-out: Control IC50*
# Description: as §1
# MLL2 Complex = MLL2 Complex (Homo sapiens, UniProt O14686); assay: Methyltransferase inhibition panel: MLL2 Complex; settings: control compound; substrate Nucleosomes 0.05 mg/mL
# Description: as §1
# PRMT3 = PRMT3 (Homo sapiens, UniProt O60678); assay: Methyltransferase inhibition panel: PRMT3; settings: control compound; substrate Histone H4 5 μM
# Description: as §1
# NSD1 = NSD1 (Homo sapiens, UniProt Q96L73); assay: Methyltransferase inhibition panel: NSD1; settings: control compound; substrate Nucleosomes 0.05 mg/mL
# Sequence of NSD1 (Q96L73 whole entry): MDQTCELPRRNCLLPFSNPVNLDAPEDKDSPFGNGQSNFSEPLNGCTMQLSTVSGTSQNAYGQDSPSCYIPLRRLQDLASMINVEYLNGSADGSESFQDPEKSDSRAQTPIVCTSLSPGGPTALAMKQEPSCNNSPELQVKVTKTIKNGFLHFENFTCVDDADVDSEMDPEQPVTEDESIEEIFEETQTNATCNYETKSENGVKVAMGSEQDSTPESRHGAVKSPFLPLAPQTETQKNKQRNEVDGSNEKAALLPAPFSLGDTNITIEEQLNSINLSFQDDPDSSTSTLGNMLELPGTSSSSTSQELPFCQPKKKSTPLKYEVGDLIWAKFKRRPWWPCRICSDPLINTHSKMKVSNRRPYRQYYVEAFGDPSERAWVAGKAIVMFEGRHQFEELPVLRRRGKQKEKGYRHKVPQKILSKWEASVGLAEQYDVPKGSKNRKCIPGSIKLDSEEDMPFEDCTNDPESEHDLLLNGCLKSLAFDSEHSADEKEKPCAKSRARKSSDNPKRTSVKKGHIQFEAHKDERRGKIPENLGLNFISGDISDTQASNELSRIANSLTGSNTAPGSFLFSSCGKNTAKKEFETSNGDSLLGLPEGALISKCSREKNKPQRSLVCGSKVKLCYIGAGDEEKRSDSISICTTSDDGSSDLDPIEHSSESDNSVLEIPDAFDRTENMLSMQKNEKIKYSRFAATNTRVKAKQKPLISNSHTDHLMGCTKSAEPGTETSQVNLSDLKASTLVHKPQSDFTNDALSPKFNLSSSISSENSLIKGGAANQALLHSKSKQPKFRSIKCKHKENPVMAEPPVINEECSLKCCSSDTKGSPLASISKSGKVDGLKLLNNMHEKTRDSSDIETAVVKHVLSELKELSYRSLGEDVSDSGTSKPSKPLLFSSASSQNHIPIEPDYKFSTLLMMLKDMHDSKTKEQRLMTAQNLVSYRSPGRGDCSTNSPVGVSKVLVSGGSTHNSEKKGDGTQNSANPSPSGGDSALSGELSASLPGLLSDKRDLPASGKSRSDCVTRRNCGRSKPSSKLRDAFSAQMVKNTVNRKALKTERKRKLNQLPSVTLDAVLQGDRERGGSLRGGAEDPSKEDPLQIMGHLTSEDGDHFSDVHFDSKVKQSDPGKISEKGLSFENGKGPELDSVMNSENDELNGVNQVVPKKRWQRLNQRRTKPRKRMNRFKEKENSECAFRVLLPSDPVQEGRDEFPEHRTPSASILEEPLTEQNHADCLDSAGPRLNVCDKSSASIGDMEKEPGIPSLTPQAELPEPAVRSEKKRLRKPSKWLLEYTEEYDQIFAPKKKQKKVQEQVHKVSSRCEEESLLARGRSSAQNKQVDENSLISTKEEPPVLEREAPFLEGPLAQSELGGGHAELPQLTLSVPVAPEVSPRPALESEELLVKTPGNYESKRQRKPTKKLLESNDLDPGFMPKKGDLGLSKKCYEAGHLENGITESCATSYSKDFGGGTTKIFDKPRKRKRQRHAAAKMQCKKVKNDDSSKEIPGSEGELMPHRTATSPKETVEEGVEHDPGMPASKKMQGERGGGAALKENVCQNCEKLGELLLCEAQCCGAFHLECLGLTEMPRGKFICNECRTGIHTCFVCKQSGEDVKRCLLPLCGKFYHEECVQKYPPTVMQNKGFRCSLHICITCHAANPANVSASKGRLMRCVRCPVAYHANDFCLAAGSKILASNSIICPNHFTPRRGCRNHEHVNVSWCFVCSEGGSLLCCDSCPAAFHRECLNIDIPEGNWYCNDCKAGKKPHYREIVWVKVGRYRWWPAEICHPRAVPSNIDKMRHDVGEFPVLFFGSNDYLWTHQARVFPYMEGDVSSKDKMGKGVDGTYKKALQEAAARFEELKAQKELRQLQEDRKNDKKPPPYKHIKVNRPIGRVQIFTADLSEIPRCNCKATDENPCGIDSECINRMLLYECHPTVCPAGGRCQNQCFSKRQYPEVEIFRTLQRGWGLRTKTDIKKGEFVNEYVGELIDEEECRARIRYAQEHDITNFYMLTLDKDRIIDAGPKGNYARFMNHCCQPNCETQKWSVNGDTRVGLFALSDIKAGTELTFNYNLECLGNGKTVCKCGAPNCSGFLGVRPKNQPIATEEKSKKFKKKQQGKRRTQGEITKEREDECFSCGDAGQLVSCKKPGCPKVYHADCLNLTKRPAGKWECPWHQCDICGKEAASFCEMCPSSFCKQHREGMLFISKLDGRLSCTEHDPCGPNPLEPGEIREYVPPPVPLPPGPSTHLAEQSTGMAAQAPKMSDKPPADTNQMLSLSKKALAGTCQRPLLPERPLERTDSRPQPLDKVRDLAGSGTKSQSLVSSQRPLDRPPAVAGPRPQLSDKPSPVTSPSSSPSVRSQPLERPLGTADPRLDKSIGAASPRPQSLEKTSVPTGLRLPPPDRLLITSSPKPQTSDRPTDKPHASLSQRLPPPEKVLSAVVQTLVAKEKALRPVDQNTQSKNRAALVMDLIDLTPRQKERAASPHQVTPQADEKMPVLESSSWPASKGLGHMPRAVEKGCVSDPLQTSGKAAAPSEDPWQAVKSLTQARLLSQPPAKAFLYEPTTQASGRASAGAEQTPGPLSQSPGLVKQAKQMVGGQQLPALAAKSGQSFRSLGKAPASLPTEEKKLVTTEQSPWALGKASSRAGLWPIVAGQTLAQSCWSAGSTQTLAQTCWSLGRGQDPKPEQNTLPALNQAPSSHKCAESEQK
# Description: as §1
# DNMT3a = DNMT3a (Homo sapiens, UniProt Q9Y6K1); assay: Methyltransferase inhibition panel: DNMT3a; settings: read-out: Control IC50*
# Description: as §1
# SET1b Complex = SET1b Complex (Homo sapiens, UniProt Q9UPS6); assay: Methyltransferase inhibition panel: SET1b Complex; settings: control compound; substrate Core Histone 0.05 mg/mL
# Description: as §1
# SET7/9 = molecular target: T5, SET7/9 (Homo sapiens, UniProt Q8WTS6); assay: Methyltransferase inhibition panel: SET7/9; settings: control compound; substrate Core Histone 0.05 mg/mL
# T5 sequence (Q8WTS6 1-366): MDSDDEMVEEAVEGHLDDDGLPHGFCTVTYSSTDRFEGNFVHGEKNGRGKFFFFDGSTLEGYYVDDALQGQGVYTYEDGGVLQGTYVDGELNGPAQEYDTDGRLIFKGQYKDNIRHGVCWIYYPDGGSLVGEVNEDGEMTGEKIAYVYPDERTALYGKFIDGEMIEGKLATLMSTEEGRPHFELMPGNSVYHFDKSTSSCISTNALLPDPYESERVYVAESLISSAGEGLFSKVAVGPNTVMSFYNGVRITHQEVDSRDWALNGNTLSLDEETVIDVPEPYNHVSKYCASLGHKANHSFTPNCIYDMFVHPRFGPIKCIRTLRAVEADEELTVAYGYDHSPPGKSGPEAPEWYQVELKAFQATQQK
# Description: as §1
# SUV420H1TV2 = SUV420H1TV2 (Homo sapiens, UniProt Q4FZB7); assay: Methyltransferase inhibition panel: SUV420H1TV2; settings: control compound; substrate Nucleosomes 0.05 mg/mL
# Sequence of SUV420H1TV2 (Q4FZB7 1-393 isoform Q4FZB7-2): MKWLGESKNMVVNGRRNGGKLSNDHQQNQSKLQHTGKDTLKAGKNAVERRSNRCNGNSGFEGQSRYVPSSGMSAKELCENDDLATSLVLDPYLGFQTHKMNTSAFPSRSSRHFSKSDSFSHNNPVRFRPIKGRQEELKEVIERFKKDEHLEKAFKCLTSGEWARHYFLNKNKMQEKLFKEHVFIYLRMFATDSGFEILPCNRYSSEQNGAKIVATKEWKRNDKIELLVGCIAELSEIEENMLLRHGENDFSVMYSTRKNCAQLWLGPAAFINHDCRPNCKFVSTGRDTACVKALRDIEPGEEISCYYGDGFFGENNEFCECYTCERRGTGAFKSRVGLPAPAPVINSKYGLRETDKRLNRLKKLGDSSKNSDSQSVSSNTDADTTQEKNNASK
# Description: as §1
# MLL4 Complex = MLL4 Complex (Homo sapiens, UniProt Q9UMN6); assay: Methyltransferase inhibition panel: MLL4 Complex; settings: control compound; substrate Nucleosomes 0.05 mg/mL
# Description: as §1
# SMYD3 = molecular target: T6, SMYD3 (Homo sapiens, UniProt Q9H7B4); assay: Methyltransferase inhibition panel: SMYD3; settings: control compound; substrate MEKK2 0.5 μM
# T6 sequence (Q9H7B4 1-428): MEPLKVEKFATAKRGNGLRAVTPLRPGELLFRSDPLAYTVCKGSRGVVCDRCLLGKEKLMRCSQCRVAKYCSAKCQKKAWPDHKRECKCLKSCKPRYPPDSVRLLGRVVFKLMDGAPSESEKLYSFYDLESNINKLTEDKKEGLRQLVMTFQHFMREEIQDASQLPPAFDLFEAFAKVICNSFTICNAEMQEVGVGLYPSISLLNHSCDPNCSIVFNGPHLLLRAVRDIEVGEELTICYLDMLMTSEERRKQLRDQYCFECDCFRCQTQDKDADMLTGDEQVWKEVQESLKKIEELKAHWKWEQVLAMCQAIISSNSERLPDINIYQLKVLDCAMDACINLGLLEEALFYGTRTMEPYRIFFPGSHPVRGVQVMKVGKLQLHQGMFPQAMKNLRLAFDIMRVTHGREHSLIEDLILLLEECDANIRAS
# Description: as §1
compound,measurement,setting,value
"CN1C(=O)[C@@]23C[C@]4([C@]56C[C@@]78SS[C@@](CO)(C(=O)N7[C@H]5Nc5ccccc56)N(C)C8=O)c5ccccc5N[C@@H]4N2C(=O)[C@]1(CO)SS3 [Chaetocin, reference compound]",IC50,ASH1L,30.8 nM
same,IC50,NSD3,85.2 nM
"Cc1ccc(NC2=CC(=O)c3sc(C)nc3C2=O)cc1 [Ryuvidine, reference compound]",IC50,SET8,109 nM
"Nc1ncnc2c1ncn2[C@@H]1O[C@H](CSCC[C@H](N)C(=O)O)[C@@H](O)[C@H]1O [SAH, reference compound]",IC50,SETDB1,1040 nM
same,IC50,MLL3 Complex,18900 nM
same,IC50,PRMT6,204 nM
same,IC50,METTL21A,64600 nM
same,IC50,GLP,553 nM
same,IC50,SUV39H2,44300 nM
same,IC50,NRMT1,310 nM
same,IC50,DNMT3b,37.9 nM
same,IC50,SETD2,3060 nM
same,IC50,MLL1 Complex,205 nM
same,IC50,DNMT3b/3L,19.3 nM
same,IC50,MLL2 Complex,21200 nM
same,IC50,PRMT3,870 nM
same,IC50,NSD1,7510 nM
same,IC50,DNMT3a,154 nM
same,IC50,SET1b Complex,8590 nM
same,IC50,SET7/9,82900 nM
same,IC50,SUV420H1TV2,117000 nM
same,IC50,MLL4 Complex,816 nM
same,IC50,SMYD3,14200 nM
